Literature values in paper PMC12649378, “Comparative Pharmacokinetics and Safety of a Micellar Chrysin–Quercetin–Rutin Formulation: A Randomized Crossover Trial” (Antioxidants, 2025).
Where a name gives a salt, the structure may show the parent alone.

Experiments:
[1] = not given; remark: listed apart in the source

Row | circulating metabolite concentration exceeding parent chrysin concentrations (in vivo) | aqueous solubility [1] | weak acidity (pH) [1] | peak plasma levels (humans, 400 mg of unformulated chrysin) | Compound
1 | ~ 30 fold |  |  |  | O=c1cc(-c2ccccc2)oc2cc(OS(=O)(=O)O)cc(O)c12 [chrysin sulfate]
2 |  | < 1 µg/mL | ≈ 6.7 | 3 to 16 ng/mL | O=c1cc(-c2ccccc2)oc2cc(O)cc(O)c12 [chrysin, 5,7-dihydroxyflavone]
